By IC50 is commonly meant the concentration that inhibits the measured activity by half.

For one assay, the system named is human cervical tumor cell line HeLa (ATCC CCL-2). As to the kind of experiment: SAC-Formation - Nocodazole-Induced Assay. The assay is classed as cell-based. Conditions: HeLa cells, nocodazole 0.1 μg/ml together with test compound, 24 h, decrease of mitotic cells (phospho-histone H3 Ser10). Put shortly: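 HeLa cells, plated overnight, were treated 24 h at 37 °C with nocodazole (0.1 μg/ml final) plus test compound (0.005–20 μM, 0.5% DMSO) added at the same time. After fixation, anti-phospho-histone H3 Ser10 and Hoechst staining gave the mitotic cell fraction by imaging. Values came from four-parameter Hill fits.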
Turning to `Cc1nsc(Nc2cnc(C(F)(F)F)cn2)c1C(=O)Nc1ccc(O[C@@H]2CCN(CCC(F)(F)F)C2)nc1` [Example 423, 3-Methyl-5-{[5-(trifluoromethyl)pyrazin-2-yl]amino}-N-(6-{[(3R)-1-(3,3,3-trifluoropropyl)pyrrolidin-3-yl]oxy}pyridin-3-yl)-1,2-thiazole-4-carboxamide], the IC50 was determined as 47 nM.

The assay is the same for the next values; noted with them: Homo sapiens, HeLa, 24 h, HeLa cells, nocodazole 0.1 μg/ml together with test compound, decrease of mitotic cells (phospho-histone H3 Ser10).
Regarding `Cc1nsc(Nc2cnc(C(F)(F)F)cn2)c1C(=O)Nc1ccc(OC[C@@H]2CCN(CCC(F)(F)F)C2)nc1` [Example 129, 3-Methyl-5-{[5-(trifluoromethyl)pyrazin-2-yl]amino}-N-(6-{[(3R)-1-(3,3,3-trifluoropropyl)pyrrolidin-3-yl]methoxy}pyridin-3-yl)-1,2-thiazole-4-carboxamide], the IC50 was determined as 32 nM.
Same read-out and setting: for `Cc1nsc(Nc2cnc3ccccc3n2)c1C(=O)Nc1ccc(C(=O)N2CCN(CC(F)F)CC2)cc1` [Example 157, N-(4-{[4-(2,2-difluoroethyl)piperazin-1-yl]carbonyl}phenyl)-3-methyl-5-(quinoxalin-2-ylamino)-1,2-thiazole-4-carboxamide] the value was 1700 nM; for `Cc1nsc(Nc2cnc3ccccc3n2)c1C(=O)Nc1cccc(C(=O)N2CCCC2)c1` [Example 113, 3-Methyl-N-[3-(pyrrolidin-1-ylcarbonyl)phenyl]-5-(quinoxalin-2-ylamino)-1,2-thiazole-4-carboxamide], 210 nM.
Still for that read-out and setting: the figure for `Cc1nsc(Nc2cnc3ccccc3n2)c1C(=O)Nc1ccc(N2CCOCC2)nc1` [Example 169, 3-methyl-N-[6-(morpholin-4-yl)pyridin-3-yl]-5-(quinoxalin-2-ylamino)-1,2-thiazole-4-carboxamide] is 2500 nM.
The same measure, in the same setting: for `Cc1nsc(Nc2cnc3ccccc3n2)c1C(=O)Nc1cccc(C(=O)N[C@H](C(=O)O)[C@@H](C)O)c1` [Example 105, N-[3-({[3-methyl-5-(quinoxalin-2-ylamino)-1,2-thiazol-4-yl]carbonyl}amino)-benzoyl]threonine] the value was 20000 nM; for `Cc1nsc(Nc2cnc(C(F)(F)F)cn2)c1C(=O)Nc1ccc(OC[C@H]2CCN(CCC(F)(F)F)C2)nc1` [Example 134, 3-Methyl-5-{[5-(trifluoromethyl)pyrazin-2-yl]amino}-N-(6-{[(3S)-1-(3,3,3-trifluoropropyl)pyrrolidin-3-yl]methoxy}pyridin-3-yl)-1,2-thiazole-4-carboxamide], 36 nM; for `Cc1nsc(Nc2cnc(C(F)(F)F)cn2)c1C(=O)Nc1ccc(OC2CCN(C(C)C)CC2)nc1` [Example 160, N-{6-[(1-isopropylpiperidin-4-yl)oxy]pyridin-3-yl}-3-methyl-5-{[5-(trifluoromethyl)pyrazin-2-yl]amino}-1,2-thiazole-4-carboxamide], 2000 nM.
Take `COC(=O)CNC(=O)c1cccc(NC(=O)c2c(C)nsc2Nc2cnc3ccccc3n2)c1` [Example 100, Methyl N-[3-({[3-methyl-5-(quinoxalin-2-ylamino)-1,2-thiazol-4-yl]carbonyl}amino)-benzoyl]glycinate]: the IC50 turned out to be 1500 nM.
Same read-out and setting: for `Cc1nsc(Nc2cnc(C(F)(F)F)cn2)c1C(=O)Nc1ccc(OC2CCN(CCF)CC2)c(F)c1` [Example 162, N-(3-fluoro-4-{[1-(2-fluoroethyl)piperidin-4-yl]oxy}phenyl)-3-methyl-5-{[5-(trifluoromethyl)pyrazin-2-yl]amino}-1,2-thiazole-4-carboxamide] the value was 160 nM.
With `Cc1nsc(Nc2cnc(C(F)(F)F)cn2)c1C(=O)Nc1ccc(C(=O)NC2CCN(CC(F)(F)F)CC2)cc1` [Example 165, 3-methyl-N-(4-{[1-(2,2,2-trifluoroethyl)piperidin-4-yl]carbamoyl}phenyl)-5-{[5-(trifluoromethyl)pyrazin-2-yl]amino}-1,2-thiazole-4-carboxamide], the IC50 is 240 nM.

The values above are taken from patent US20170334899A1, “AMINO-SUBSTITUTED ISOTHIAZOLES” (Bayer Pharma Aktiengesellschaft, priority 2014, published 2017).
